Laboratory results as given in publication PMC11620506, “Inhibition of endocytic uptake of severe acute respiratory syndrome coronavirus 2 and endo-lysosomal acidification by diphenoxylate” (Antimicrobial Agents and Chemotherapy, 2024).
“Also recorded” adds a separate entry of the source. Like-named read-outs stand apart in the source and are kept apart here.

Assays:
[1] = tested on: SARS-CoV-2 (original wild-type, hCoV-19/Korea/KCDC06/2020); assay: microbe, parasite or virus in culture; assay type: cell-based; conditions: for EC50: Severe acute respiratory syndrome coronavirus 2, Vero cells, immunofluorescence images, n = 3, read-out: EC50, half maximal effective concentration to reduce SARS-CoV-2 spike protein expression by 50%
SARS-CoV-2 [2] = assay type: cell-based; conditions: Vero cells; 1, 10 and 100 µM; day 1
SARS-CoV-2 [3] = assay type: cell-based
SARS-CoV-2 [4] = assay type: cell-based; conditions: Calu-3 cells, day 2
SARS-CoV-2 [5] = assay: Antiviral assay using human tonsil organoids (RT-PCR of supernatants); assay type: cell-based; conditions: day 2
in vitro = conditions: African green monkey
Experimental: Following the method described earlier, Vero cells in 96 wells were treated with threefold serial dilutions of each compound, ranging from 100 µM to 5 nM, both with and without SARS-CoV-2 infection at 0.01 MOI. […] Concurrently, the viability of mock-infected cells was assessed using a 3-(4,5-dimethylthiazol-2-yl)−2,5-diphenyltetrazolium bromide (MTT) assay to determine the 50% cytotoxic concentration (CC50). The selectivity index (SI) is calculated as the ratio of CC50 to EC50.

SARS-CoV-2 [6] = assay type: in vivo, mice
Calu-3 cells = conditions: MTT
Experimental: Calu-3 cells. Calu-3 cells were either mock-infected or infected with SARS-CoV-2 (MOI, 0.1)
(§1) On Day 1 after treatment, the viral S protein was labeled with its specific antibody for an
immunofluorescence assay, while mock-infected cells were incubated with MTT. Antiviral
(§2) activity was determined by calculating the percentage inhibition of the S protein level relative
to that in SARS-CoV-2-infected, DMSO-treated cells (red line). Cell viability was determined
by measuring cell metabolic activity using MTT relative to naive cells (black line). All values
(§3) are represented as the mean ± SEM from three independent experiments.

SARS-CoV-2 [7] = assay: Antiviral activity assay (anti-S immunofluorescence) in Calu-3 cells; conditions: Severe acute respiratory syndrome coronavirus 2, Calu-3, 24 h
Text: These mixtures were serially diluted threefold, eight times, in EMEM and used to treat SARS-CoV-2-infected Calu-3 cells (MOI of 0.01). On day 1, cells were immunostained with an anti-S-antibody and its fluorescently labeled secondary antibody to estimate the two fractional EC50s (FEC50s) for each drug combination, as well as their sum (ΣFEC50). The interaction was defined as synergistic when the ΣFEC50 value was less than 0.8 ([27]).
Calu-3 cells were either mock-infected or infected with SARS-CoV-2 (MOI, 0.1)
as §1
immunofluorescence assay, while mock-infected cells were incubated with MTT.
as §2
to that in SARS-CoV-2-infected, DMSO-treated cells (red line).
as §3

[8] = tested on: endo-lysosomal vesicles of Vero cells; assay: Acridine orange staining of endo-lysosomal vesicle pH in Vero cells; assay type: cell-based; conditions: 10 µM, 1 h at 37°C
Experimental: To monitor pH changes in endo-lysosomal vesicles, Vero cells (8 × 10^4 cells per 35 mm dish) were treated with either DMSO or 10 µM diphenoxylate for 1 h at 37°C. After washing with PBS, they were stained with acridine orange (8 µg/mL) for an additional 30 min. With excitation at 488 nm, live cell images were scanned at two wide-band emission wavelength ranges: 493–560 nm (green) and 590–720 nm (red). All fluorescent images were obtained using a Zeiss LSM 700 confocal microscope and analyzed with ZEN software (Carl Zeiss, Thornwood, NY, USA).
Fig 4 Deacidification of endo-lysosomal vesicles by diphenoxylate. Vero cells were treated with DMSO as a mock control (upper), or with 10 µM diphenoxylate (lower), at 37°C for 1 h. […] Fluorescence images were acquired after excitation at 488 nm, at two different emission wavelengths: 493–560 nm (green; left) and 590–720 nm (red; middle). The images were merged (right) to distinguish acidic (red) and neutralized cytoplasmic vesicles (green or yellow) based on the red-to-green fluorescence intensity ratio. […]
Figure S2. […] After excitation at 488 nm, fluorescence images were acquired at two different emission wavelengths: 493-560 nm (green; left) and 590-720 nm (red; middle). The images were merged (right) to distinguish acidic (red) and neutralized cytoplasmic vesicles (green or yellow) based on the red-to-green fluorescence intensity ratio. […]

[9] = mice
in vivo = conditions: male, ICR, mouse, iv, 5 mg/kg, T1/2, terminal half-life in plasma, mice, diphenoxylate 5 mg/kg intravenously, analyte in plasma, mean ± SEM, three mice
SARS-CoV-2 [10] = assay type: cell-based; conditions: 20 µM, Vero cells; for nuclei numbers compared to the control: DAPI
SARS-CoV-2 [11] = assay type: cell-based; remark: listed apart in the source
SARS-CoV-2 [12] = assay: Confocal microscopy of viral N protein distribution (endocytic uptake) in Vero cells; assay type: cell-based; conditions: 10 or 30 µM
SARS-CoV-2 [13] = assay type: cell-based; conditions: Calu-3 cells; 0.001–100 µM; day 2
[14] = cited from earlier work

Question: Which EC50 [1] does the source give for `CCC(CC)COC(=O)[C@H](C)N[P@](=O)(OC[C@H]1O[C@@](C#N)(c2ccc3c(N)ncnn23)[C@H](O)[C@@H]1O)Oc1ccccc1` [RDV, remdesivir] here?
Answer: 7.6 ± 1.2 µM

Question: What about the “levels of S2 and additional S cleavage products (Western blot)” value (SARS-CoV-2 [2]) of the same compound?
Answer: dose-dependently reduced

Question: And the “viral RNA copy numbers in culture supernatants” value (SARS-CoV-2 [3])?
Answer: efficiently suppressed

Question: And the “reduction of viral RNA levels in culture supernatants” value (SARS-CoV-2 [4]; concentration not given)?
Answer: exceeding four logs

Question: What about the “reduction in viral RNA levels in culture supernatants” value (SARS-CoV-2 [5]; 10 µM) of the same compound?
Answer: between one and two logs

Question: And the CC50 (in vitro)?
Answer: > 100 µM

Question: Which EC50 [1] does the source give for `OC(CCN1CCCCC1)(c1ccccc1)c1ccccc1` [pridinol] here?
Answer: ~96.4 µM

Question: Which “viral RNA levels in lungs (qRT-PCR, S gene)” value (SARS-CoV-2 [6]; hACE2 transgenic mice, 50 mg/kg/day oral, BID, […]) does the source give for `CC(C)C(=O)OC[C@H]1O[C@@H](n2ccc(NO)nc2=O)[C@H](O)[C@@H]1O` [molnupiravir] here?
Answer: significantly reduced

Question: Which “cytotoxicity at the highest tested concentration” value (Calu-3 cells; 300 nM) does the source give for `N=C(N)c1ccc2cc(OC(=O)c3ccc(N=C(N)N)cc3)ccc2c1` [nafamostat] here?
Answer: no cytotoxicity

Question: What about the EC50 (SARS-CoV-2 [7]) of the same compound?
Answer: 0.0035 ± 0.0005 µM

Question: What does the source list for `N#CC(CCN1CCC(C(=O)O)(c2ccccc2)CC1)(c1ccccc1)c1ccccc1` [Difenoxin, difenoxin]?
Answer: EC50 [1]: > 100 µM; effect on acidic pH of endo-lysosomal vesicles [8]: failed to deacidify endo-lysosomes; T1/2, terminal half-life in plasma ([9]; diphenoxylate 5 mg/kg intravenously, analyte in plasma, mean ± SEM, three mice): 3.6 ± 0.2 h; half-life (in vivo): 6.4 h; CC50 (in vitro): > 100 µM

Question: Which “SI, selectivity index, ratio of CC50 to EC50” value (from here on “SI, selectivity index, ratio”) [1] does the source give for `Cc1cccc(CN2CCN(C(c3ccccc3)c3ccc(Cl)cc3)CC2)c1` (stereo not drawn) [Meclizine, meclizine] here?
Answer: 4.2

Question: What about the EC50 [1] of the same compound?
Answer: 21.4 ± 3 µM

Question: And the “nuclei numbers compared to the control” value (SARS-CoV-2 [10])?
Answer: 80%–120%

Question: And the “reduction of S protein expression level” value (SARS-CoV-2 [10])?
Answer: over 90%

Question: And the CC50 (in vitro)?
Answer: 89.5 ± 4.4 µM

Question: Which “SI, selectivity index, ratio” value [1] does the source give for `CCOC(=O)C1(c2ccccc2)CCN(CCC(C#N)(c2ccccc2)c2ccccc2)CC1` [Diphenoxylate, diphenoxylate] here?
Answer: >71.4

Question: What about the EC50 [1] of the same compound?
Answer: 1.4 ± 1.1 µM

Question: What about the “nuclei numbers compared to the control” value (SARS-CoV-2 [10]) of the same compound?
Answer: 80%–120%

Question: What about the “reduction of S protein expression level” value (SARS-CoV-2 [10]) of the same compound?
Answer: over 90%

Question: What about the “levels of S2 and additional S cleavage products (Western blot)” value (SARS-CoV-2 [2]) of the same compound?
Answer: dose-dependently reduced

Question: What about the “viral RNA copy numbers in culture supernatants” value (SARS-CoV-2 [3]) of the same compound?
Answer: efficiently suppressed

Question: And the “reduction in plaque numbers” value (SARS-CoV-2 [11])?
Answer: approximately two-log reduction; also recorded: substantial reduction; also recorded: not under the post-treatment condition

Question: And the “reduction in plaque numbers” value (SARS-CoV-2 [11]; 20 µM, co-treatment (pre-incu), 30 min preincubation with virus)?
Answer: substantial reduction

Question: And the “effect on receptor-mediated endocytosis of SARS-CoV-2 (N protein localisation)” value (SARS-CoV-2 [12])?
Answer: inhibits receptor-mediated endocytosis of SARS-CoV-2

Question: What about the “effect on acidic pH of endo-lysosomal vesicles” value [8] of the same compound?
Answer: neutralizes the acidic environment of endo-lysosomal organelles

Question: What about the “expression of viral proteins S and N (Western blot)” value (SARS-CoV-2 [13]) of the same compound?
Answer: suppressed the expression of viral proteins S and N dose dependently

Question: What about the “decrease of viral RNA levels in culture supernatants” value (SARS-CoV-2 [4]; 10 µM) of the same compound?
Answer: one

Question: What about the “reduction in viral RNA levels in culture supernatants” value (SARS-CoV-2 [5]; 100 µM) of the same compound?
Answer: between one and two logs

Question: What about the “reduction of viral RNA copy number in the lungs” value (SARS-CoV-2 [6]; hACE2 transgenic mice, […], on day 3, 10 mg/kg/day) of the same compound?
Answer: 70%

Question: And the “viral RNA levels in lungs (qRT-PCR, S gene)” value (SARS-CoV-2 [6]; mouse, in vivo, 10 mg/kg/day)?
Answer: significantly reduced

Question: And the “cytotoxicity at the highest tested concentration” value (Calu-3 cells; 300 µM)?
Answer: no cytotoxicity

Question: And the “fraction converted into difenoxin” value ([9]; within 30 min after intravenous injection, 5 mg/kg)?
Answer: approximately 90%

Question: And the half-life (in vivo)?
Answer: 6.4 ± 0.9 h

Question: And the CC50 (in vitro)?
Answer: > 100 µM

Question: And the EC50 (SARS-CoV-2 [7])?
Answer: 21.9 ± 2.1 µM

Question: What does the source list for `Fc1ccc(C(c2ccc(F)cc2)N2CCN(C/C=C/c3ccccc3)CC2)cc1` [Flunarizine, flunarizine]?
Answer: SI, selectivity index, ratio of CC50 to EC50 [1]: 2.4; EC50 [1]: 12.9 ± 5.7 µM; nuclei numbers compared to the control (SARS-CoV-2 [10]): 80%–120%; reduction of S protein expression level (SARS-CoV-2 [10]): over 90%; CC50 (in vitro): 30.6 ± 1.8 µM

Question: Which “SI, selectivity index, ratio” value [1] does the source give for `COC(=O)C1=C(C)NC(C)=C(C(=O)OCCN2CCN(C(c3ccccc3)c3ccccc3)CC2)C1c1cccc([N+](=O)[O-])c1` (stereo not drawn) [Manidipine, manidipine] here?
Answer: 1.7

Question: What about the EC50 [1] of the same compound?
Answer: 26.8 ± 1.1 µM

Question: And the “nuclei numbers compared to the control” value (SARS-CoV-2 [10])?
Answer: 80%–120%

Question: And the “reduction of S protein expression level” value (SARS-CoV-2 [10])?
Answer: over 90%

Question: And the CC50 (in vitro)?
Answer: 46.6 ± 0.5 µM

Question: For `CN(C)c1ccc2cc3ccc(N(C)C)cc3nc2c1` [acridine orange], which pKa [14] is on record?
Answer: approximately 9.65
